Converted amounts (≈) assume the structure as drawn. Where two headings read alike, the source gives them in different places. One block for each compound: values may come before it.
What was measured:
[1] = test system: human embryonic fibroblasts (HEFs); experiment: MTT cytotoxicity on human embryonic fibroblasts; format: cell-based; conditions: Homo sapiens, Fibroblast, 24 h, ND = non-toxic in tested concentrations (up to 50 mg/L)
Protocol: The primary screening of 22 substances was performed on human embryonic fibroblasts (HEFs). […] The HepG2 cell line was obtained from the American Type Culture Collection (ATCC cat. # HB-8065). The primary HEF cells (normal human embryonic fibroblasts) were derived from human embryonic stem cells. The cells were cultured in DMEM/F12 (1:1) medium containing 10% fetal bovine serum (Invitrogen, Carlsbad, CA, USA) at 37 °C and 5% CO2, according to standard mammalian tissue culture protocols and sterile technique. […] The incubation time with the substance was 24 h for all substances and cell lines. Cell detachment by trypsin, centrifugation, and counting in a hemocytometer were performed 16 h before the addition of the substance. For correct counting of the HepG2 cells, the cell suspension was passed through a syringe needle to get rid of cell aggregates. The cells were placed in the wells of a 96-well plate. The number of cells was selected according to the properties of the cell line and the final optical density in the experiment. Fibroblasts and hepatocytes were used in the amount of 10 thousand cells per well in 100 μL of DMEM/F12 medium supplemented with 10% fetal bovine serum. The substances were added to 100 µL of medium in the wells so that the final concentrations were 50, 25, 12.5, 6.25, 3.125, and 1.62 mg/L. The final well volume was 200 µL. The medium containing fetal bovine serum, without added substances, was used as a negative control. After 24 h, excessive amounts of medium were discarded. A total of 30 µL of MTT solution (5 mg/mL in PBS) was added to each well. After the precipitation of formazan crystals (3 h incubation), they were dissolved using 100 μL of dimethyl sulfoxide. The optical density (OD) was measured at 570 nm using a microplate reader (Eppendorf). For every condition, the cell viabilities were assessed in at least three independent experiments for every cell culture. Cell survival was calculated using the following formula:(OD of treated cells − OD blank)/(OD of control cells − OD blank) × 100%, where OD blank represents the OD values in wells without cells but with the addition of the MTT and DMSO solutions. The results were presented in the form of cytotoxicity curves, and the graphs were also plotted in a Microsoft Excel program; the calculation of the IC50 half-maximal inhibition concentration values was performed in a GraphPad Prism 6.0 (GraphPad Software Inc., San Diego, CA, USA) program, based on the equations of the cytotoxicity curves.

[2] = Solubility in water by HPLC; format: physicochemical; conditions: water, kinetic from dmso stock
Protocol: The solubility of the compounds in water was assessed using HPLC analysis. Two 1.0 mg portions of the test compounds were dissolved in 10 μL of dimethyl sulfoxide; 1.0 mL of acetonitrile was added to one sample (standard), and 1.0 mL of water was added to the second sample (tested sample). Both vials were mixed in a shaker for 5 min, then centrifuged at 10,000 rpm for 5 min. The supernatants were collected and analyzed using Agilent 1290 Infinity (Agilent Technologies, Santa Clara, CA, USA) with a YMC-Triart C18 50 × 2.0 mm, 1.9 μm column. The concentration of the test compound in water was determined by comparing the peak areas of the standard (concentration 1.0 mg/mL) and the tested sample.

MRSA clinical isolates = experiment: MIC by broth microdilution against multidrug-resistant MRSA clinical isolates; format: cell-based, Staphylococcus aureus; conditions: 8 multidrug-resistant MRSA clinical isolates; tested 0.125-1 mg/L
Protocol: Clinical MRSA isolates with multidrug resistance were obtained from the collection of the Research Institute of Antimicrobial Chemotherapy, Smolensk State Medical Academy.
The MICs were determined using a broth microdilution method according to [42]. Briefly, serial dilutions of the tested compounds in 50 µL of Mueller Hinton broth (BD) were prepared in 96-well microplates. The antibiotics vancomycin and linezolid (Sigma-Aldrich, St. Louis, MO, USA) were used as a positive control. Bacterial suspensions of the tested MRSA strains were prepared in the Mueller Hinton broth (BD) with a concentration 1 × 10^6 CFU/mL, and then 50 µL aliquots were added to the prepared microplates. The final concentrations of the antibiotics in the wells were 1, 0.5, 0.25, and 0.125 mg/L, for the tested compounds, and 2 mg/L for vancomycin and linezolid. Negative control (lack of bacterial cells) and growth control (lack of compound) wells were included in all plates. The microplates were incubated at 37 °C for 18 h. The growth was assessed visually after incubation, and the MIC was assumed as the lowest compound concentration at which a noticeable growth of the microorganisms was inhibited (no visible growth). All experiments were conducted in triplicate.

Caco-2 cells = experiment: Caco-2 cell monolayer permeability; format: in vitro ADME, human
Protocol: The MultiScreen Caco-2 (ATCC cat. # HTB-37) test system (Millipore, St. Charles, MO, USA) was used to study the transport through a cell monolayer, according to the manufacturer’s instructions. Briefly, a study of transport from the apical membrane to the basolateral (A-B) area and in the opposite direction (B-A) was carried out on a 21-day culture of Caco-2 at a 1 µM concentration of the tested compound for 2 h. Monolayer integrity was verified by measuring electrical resistance (TEER) using a Millicell-ERS instrument. A TEER value of at least 3 KOhm/well was determined to be acceptable.

cytochrome P450 2C8 = target: T1, cytochrome P450 2C8 (Homo sapiens, UniProt P10632); experiment: Inhibition of cytochrome P450 isoform activity in human liver microsomes; format: in vitro ADME; conditions: N/A: no inhibition, tested 0.0046–10 μM
T1 construct: was investigated using human liver microsomes (XenoTech, USA); tissue XenoTech; host or cells: human liver microsomes
T1 sequence (P10632 1-490): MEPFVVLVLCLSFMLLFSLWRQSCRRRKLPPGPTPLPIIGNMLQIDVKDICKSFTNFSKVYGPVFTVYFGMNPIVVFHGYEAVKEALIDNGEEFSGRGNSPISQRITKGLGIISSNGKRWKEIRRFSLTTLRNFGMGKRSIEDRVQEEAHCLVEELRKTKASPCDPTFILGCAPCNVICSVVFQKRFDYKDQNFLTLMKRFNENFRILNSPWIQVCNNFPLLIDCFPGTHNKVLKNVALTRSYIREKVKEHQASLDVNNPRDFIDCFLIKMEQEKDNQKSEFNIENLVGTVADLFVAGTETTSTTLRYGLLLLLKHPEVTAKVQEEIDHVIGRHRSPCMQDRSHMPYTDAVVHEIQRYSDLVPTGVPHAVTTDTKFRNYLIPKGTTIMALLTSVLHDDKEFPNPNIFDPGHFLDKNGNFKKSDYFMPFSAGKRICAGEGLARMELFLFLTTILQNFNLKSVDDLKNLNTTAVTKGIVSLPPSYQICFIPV
Protocol: The effect of the tested compound on the activity of the main isoforms of human liver cytochrome P450 (1A2, 2C9, 2C19, 2D6, 3A4, 2C8) was investigated using human liver microsomes (XenoTech, USA) and their corresponding substrates: phenacetin, testosterone, tolbutamide, S-mephenytoin, dextromethorphan hydrobromide, and amodiaquine dihydrochloride dihydrate (Sigma-Aldrich, USA).
[…]. The reaction was stopped after 20 min by adding acetonitrile. The resulting metabolites were detected using UPLC–MS/MS. The calculation of the IC50 half-maximal inhibition concentration values was performed in the GraphPad Prism 6.0 (GraphPad Software Inc., USA) program, based on the equations of the experimental curves.

[3] = Caco-2, first value: A-B / apical

- solubility at 5 min ([2]; read-out: Solubility in water, mass concentration): 0.399 µg/mL
- solubility at 5 min ([2]; read-out: Solubility in water, molar concentration): 1 µM
- MIC Range Against 8 MRSA Strains (MRSA clinical isolates): 1 mg/L (≈ 3.17 µM)
Compound: CCOC(=O)c1[nH]c2ncccc2c1/N=N/N1CCC(C)CC1 [BX-SI058, Ethyl (E)-3-((4-methylpiperidin-1-yl)diazenyl)-1H-pyrrolo[2,3-b]pyridine-2-carboxylate]
- IC50 [1]: 12 mg/L (≈ 38 µM)

- Papp A-B (Caco-2 cells; Caco-2, 1 µM, 2 h): 44.6 10^-6 sm/s
- Mass balance (Caco-2 cells; [3]): 91.7%
Compound: CC(C)NCC(O)COc1cccc2ccccc12 (centres unmarked) [Propranolol, propranolol]

- IC50 (cytochrome P450 2C8): 2.6 µM
Compound: O=c1c(O)c(-c2ccc(O)c(O)c2)oc2cc(O)cc(O)c12 [Quercetin, quercetin]

- Papp A-B (Caco-2 cells; Caco-2, 1 µM, 2 h): 1.48 10^-6 sm/s
- Mass balance (Caco-2 cells; [3]): 96%
Compound: CNC(=C[N+](=O)[O-])NCCSCc1ccc(CN(C)C)o1 [Ranitidine, ranitidine]

- Asymmetry index (Caco-2 cells; Caco-2): 3.20
- Papp A-B (Caco-2 cells; Caco-2, 1 µM, 2 h): 1.14 10^-6 sm/s
- Papp B-A (Caco-2 cells; Caco-2, 1 µM, 2 h): 3.65 10^-6 sm/s
- Mass balance (Caco-2 cells; [3]): 92.1%
- Mass balance (Caco-2 cells; Caco-2, second value: B-A / basolateral): 95.8%
Compound: rhodamine

Reference: paper PMC11899342, “Novel Triazeneindole Antibiotics: Synthesis and Hit-to-Lead Optimization” (International Journal of Molecular Sciences, 2025)
